Reference: ChEMBL document CHEMBL1201862, “PubChem BioAssay data set” (2004)
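Results reflect a 48-hour exposure of cells in 96-well plates to compound at five concentrations. GI50 = concentration required for 50% inhibition of growth.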 Active and inactive are the calls of the source. Cut-off read from the data, not from the text of the source: active = GI50 up to about 1.1 µM and inactive = higher.

Experiments:
Test in all cases: NCI anticancer screen, dose series, 48 h
SF-539 = system: SF-539
OVCAR-5 = system: OVCAR-5
SK-MEL-2 = system: SK-MEL-2
CCRF-CEM = system: CCRF-CEM
SR = system: SR
786-0 = system: 786-0
Hs-578T = system: Hs-578T
SK-MEL-5 = system: SK-MEL-5
K562 = system: K562
NCI-H226 = system: NCI-H226
ACHN = system: ACHN
T47D = system: T47D
NCI-H23 = system: NCI-H23
TK-10 = system: TK-10
HL-60 = system: HL-60
CAKI-1 = system: CAKI-1
MOLT-4 = system: MOLT-4

Measured: GI50

CCc1nc(N)c2nc(-c3ccc(C#N)cc3)oc2n1
inactive: SF-539 > 100 µM | OVCAR-5 > 100 µM | SK-MEL-2 > 100 µM | CCRF-CEM > 100 µM | SR > 100 µM | 786-0 > 100 µM | Hs-578T > 100 µM | SK-MEL-5 > 100 µM | K562 > 100 µM | NCI-H226 > 100 µM | ACHN > 100 µM | T47D > 100 µM | NCI-H23 > 100 µM | TK-10 > 100 µM | HL-60 > 10 µM | CAKI-1 > 100 µM | MOLT-4 > 100 µM

COC1OC(C(C)O)C2OC(C)(C)OC12 (stereo unspecified)
inactive: SF-539 > 100 µM | OVCAR-5 > 100 µM | SK-MEL-2 > 100 µM | CCRF-CEM > 100 µM | SR > 100 µM | 786-0 > 100 µM | Hs-578T > 100 µM | SK-MEL-5 > 100 µM | K562 > 100 µM | NCI-H226 > 100 µM | ACHN > 100 µM | T47D > 100 µM | NCI-H23 > 100 µM | TK-10 > 100 µM | HL-60 > 100 µM | CAKI-1 > 100 µM | MOLT-4 > 100 µM

O=C(O)CCS/C(=C\C(SCCC(=O)O)c1ccc(Cl)cc1)c1ccc(Cl)cc1 (stereo unspecified)
inactive: SF-539 37.2 µM | OVCAR-5 > 100 µM | SK-MEL-2 26.5 µM | CCRF-CEM 30.1 µM | SR 29.4 µM | 786-0 78.9 µM | Hs-578T 63.5 µM | SK-MEL-5 48.3 µM | K562 35.1 µM | NCI-H226 69 µM | ACHN 46.3 µM | T47D 41.9 µM | NCI-H23 42.5 µM | TK-10 80.7 µM | HL-60 36.7 µM | CAKI-1 37.2 µM | MOLT-4 37.2 µM

NC(CO)C(=O)NCC(=O)O (stereo unspecified)
inactive: SF-539 > 100 µM | OVCAR-5 > 100 µM | SK-MEL-2 > 100 µM | CCRF-CEM > 100 µM | SR > 100 µM | 786-0 > 100 µM | Hs-578T > 100 µM | SK-MEL-5 > 100 µM | K562 > 100 µM | NCI-H226 > 100 µM | ACHN > 100 µM | T47D > 100 µM | NCI-H23 > 100 µM | TK-10 > 100 µM | HL-60 > 100 µM | CAKI-1 > 100 µM | MOLT-4 > 100 µM

O=C(OCCN=C1c2ccccc2CCc2ccccc21)c1ccccc1
inactive: SF-539 > 100 µM | OVCAR-5 > 100 µM | SK-MEL-2 > 100 µM | CCRF-CEM > 100 µM | SR 18 µM | 786-0 > 100 µM | Hs-578T > 100 µM | SK-MEL-5 > 100 µM | K562 > 100 µM | NCI-H226 53.1 µM | ACHN > 100 µM | T47D > 100 µM | NCI-H23 > 100 µM | TK-10 > 100 µM | HL-60 > 100 µM | CAKI-1 > 100 µM | MOLT-4 15.2 µM

[O-]/[N+](=N/c1ncc(-c2ccccc2)cn1)c1ncc(-c2ccccc2)cn1
inactive: SF-539 > 65.2 µM | OVCAR-5 > 100 µM | SK-MEL-2 > 100 µM | CCRF-CEM 34.4 µM | SR 16.4 µM | 786-0 99.5 µM | Hs-578T > 76.6 µM | SK-MEL-5 42.7 µM | K562 52.8 µM | NCI-H226 > 94.8 µM | ACHN > 100 µM | T47D > 79.8 µM | NCI-H23 > 100 µM | TK-10 > 100 µM | HL-60 39.1 µM | CAKI-1 > 100 µM | MOLT-4 > 64.6 µM

O=c1c2cccnc2[nH]c2ccc3cn[nH]c3c12
inactive: SF-539 7.52 µM | OVCAR-5 > 10 µM | SK-MEL-2 > 10 µM | CCRF-CEM 6.15 µM | SR 3.29 µM | 786-0 > 10 µM | Hs-578T 6.21 µM | SK-MEL-5 > 10 µM | K562 > 10 µM | NCI-H226 5.38 µM | ACHN 3.97 µM | T47D > 10 µM | NCI-H23 > 10 µM | TK-10 > 10 µM | HL-60 4.49 µM | CAKI-1 8.77 µM | MOLT-4 > 10 µM

COc1ccc(C(=O)N=C2N(c3ccccc3)C(=N/c3ccccc3)/C(=N\c3ccccc3)N2c2ccccc2)cc1
inactive: SF-539 35 µM | OVCAR-5 > 75.7 µM | SK-MEL-2 21.3 µM | CCRF-CEM > 100 µM | SR > 100 µM | 786-0 17.9 µM | Hs-578T 7.78 µM | SK-MEL-5 23.2 µM | K562 > 100 µM | NCI-H226 29.9 µM | ACHN 22.5 µM | T47D > 58.6 µM | NCI-H23 39.3 µM | TK-10 18.5 µM | HL-60 > 100 µM | CAKI-1 39.9 µM | MOLT-4 > 100 µM
